Measured values: patent US4783443A, “Amino acyl cephalosporin derivatives” (The University of Chicago, priority 1986, dated 1988)

Tests used:
Assay in all cases: Minimum inhibitory concentration (MIC)
Assay type in all cases: cell-based
Corynebacterium JKM-4754 = settings: Corynebacterium, JKM4754, read-out: Minimum Inhibitory Concentration
Excerpt: (§1) The antibacterial effects of compounds of the invention have been assessed by determination of the minimum inhibitory concentration (M.I.C.) value against a variety of Gram-negative and -positive bacteria. The microbial susceptibility data for four compounds, together with those for the antibacterial dipeptide beta-Cl-LAla-beta-Cl-LAla, are given in Table I.
(§2) in uM to facilitate a meaningful comparison of the approximate MICs among
(§3) the tested compounds; an appreciation of the MIC values in ug/mL can be
(§4) obtained by multiplying each value (μM) by 0.55
(§5) ^(j) Resistant to cephalothin (MIC >200 uM);

Corynebacterium JKR-2285 = settings: Corynebacterium, JKR2285, read-out: Minimum Inhibitory Concentration
Excerpt: as §1, §2, §3, §4, §5

Escherichia coli Ceph^R = settings: Escherichia coli, read-out: Minimum Inhibitory Concentration
Excerpt: as §1, §2, §3, §4, §5

Measured: MIC

CC(=O)OCC1=C(C(=O)O)N2C(=O)[C@@H](NC(=O)Cc3cccs3)[C@H]2SC1 [cephalothin, reference compound]
> 200 µM: all assays above
